Earlier results in patent US9265724B2, “Oral dosage form of tetrahydrocannabinol and a method of avoiding and/or suppressing hepatic first pass metabolism via targeted chylomicron/lipoprotein delivery” (priority 2005, dated 2016).

Experiments:
[1] = low aqueous solubility and high permeability

CCCCCc1cc(O)c2c(c1)OC(C)(C)[C@@H]1CCC(C)=C[C@@H]21 [Δ^9-THC, Δ^9-tetrahydrocannabinol]
biopharmaceutical classification system (BCS) class [1]: Class II
absorbed (after a single oral dose): 90-95%
continuation of appetite stimulant effect (after administration): ≥ 24 h
duration of action for psychoactive effects (after oral administration): 4 to 6 h
peak effect (after oral administration): 2 to 4 h
administered dose that reaches systemic circulation (oral): 10-20%
maximal plasma levels (oral dosing of 20 mg in a sesame oil formulation): around 10 ng/ml
